Measured values reported in patent publication US5591741A, “Fungicidal spiroheterocyclic derivatives” (American Cyanamid Company, priority 1993, dated 1997).

Tests used:
[1] = tested on: Erysiphe graminis f.sp. hordei; assay: Direct protectant activity against barley powdery mildew (EGP); type: in vivo; conditions: direct protectant foliar spray, 8 days
How it was run: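 Barley seedlings (cv Golden Promise, single-leaf stage) were foliar-sprayed, held 24 h at 18 °C/40% RH, then dusted with mildew conidia. After 8 days at 18 °C/40% RH, sporulating leaf area was scored as a rating against untreated or diluent-sprayed controls.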

[2] = tested on: Plasmopara viticola; assay: Antisporulant activity against vine downy mildew (PVA); type: in vivo; conditions: vine leaves, antisporulant foliar spray, 600 ppm, 750 l/ha
How it was run: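 Cabernet Sauvignon vines (~8 cm) inoculated on lower leaf surfaces with 5×10^4 zoosporangia/ml, held 24 h at 21° C high humidity then 24 h glasshouse. Infected leaves sprayed underside with 600 ppm compound in 1:1 water/acetone, 0.04% Tween 20, 750 l/ha; 96 h glasshouse, 24 h humidity. Sporulating leaf area rated versus control.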

[3] = tested on: Botrytis cinerea; assay: Direct protectant activity against broad bean grey mould (BCB); type: in vivo; conditions: direct protectant foliar spray, 600 ppm, 4 days
How it was run: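 Broad bean plants (cv The Sutton, two leaf pairs) sprayed on upper leaf surfaces at 600 ppm, then inoculated 24 h later with 10^6 conidia/ml. Kept 4 days at 22 °C, high humidity; disease control rated from % leaf area with lesions against untreated or diluent controls.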

[4] = tested on: Rhizoctonia solani; assay: Activity against Rhizoctonia in-vitro (RSI); type: cell-based; conditions: 10 ppm, 10 days, 20° C., mycelial growth
How it was run: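 R. solani mycelial fragments (5×10^4/ml) in half-strength Potato Dextrose Broth with compound added from acetone to 10 ppm final. Mycelial growth assessed after 10 days at 20° C, rated against untreated or diluent control.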

[5] = tested on: Erysiphe graminis f.sp. hordei; assay: Activity against barley powdery mildew, direct therapeutic (EGT); type: in vivo; conditions: direct therapeutic foliar spray, 600 ppm, up to 7 days
How it was run: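 Barley seedlings (cv. Golden Promise, single-leaf stage) were dusted with mildew conidia one day before a therapeutic foliar spray of 600 ppm compound. Plants were kept at 18 °C and 40% humidity for up to 7 days, and sporulating leaf area was rated against untreated or diluent-sprayed controls.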

[6] = tested on: Pyricularia oryzae; type: in vivo; conditions: rice seedlings, direct therapeutic foliar spray, 600 ppm, 4-5 days
[7] = tested on: Venturia inaequalis; assay: Activity against apple scab in-vitro (VII); type: cell-based; conditions: 10 ppm, 10 days, 20° C., mycelial growth
How it was run: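 Compound in acetone was tested at 10 ppm final in half-strength Potato Dextrose Broth inoculated with V. inaequalis mycelial fragments and spores at 5×10^4 propagules/ml. After 10 days at 20° C, mycelial growth was rated against untreated or diluent controls.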

[8] = tested on: Pseudocercosporella herpotrichoides; assay: Activity against wheat eyespot in-vitro (PHI); type: cell-based; conditions: 10 ppm, 10 days, 20° C., mycelial growth
How it was run: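 P. herpotrichoides mycelial fragments (5×10^4/ml) grown in half-strength PDB with compound at 10 ppm final, added from acetone. Incubated 10 days at 20 °C; mycelial growth rated against untreated or diluent controls.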

[9] = tested on: Leptosphaeria nodorum; assay: Activity against wheat leafspot (LN); type: in vivo; conditions: direct therapeutic foliar spray, 600 ppm, 6-8 days
How it was run: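 Wheat cv Norman at single-leaf stage spray-inoculated with 1.5×10^6 conidia/ml, held 24 h at high humidity, then sprayed therapeutically with test compound at 600 ppm. Kept 6-8 days at 22° C, 70% humidity; lesion density per leaf rated against untreated or diluent-sprayed controls.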

[10] = tested on: Phytophthora infestans; type: in vivo; conditions: tomato, direct protectant foliar spray
[11] = tested on: Alternaria solani; assay: Activity against tomato early blight (AS); type: in vivo; conditions: Table VI; tomato seedlings, contact prophylactic foliar spray, 4 days
How it was run: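 Foliar contact prophylactic spray on tomato seedlings (cv Outdoor Girl, second true leaf expanded) in acetone/water 50:50 with 0.04% Tween 20; 24 h at 20° C, 40% R.H., then inoculation with 10^4 spores/ml A. solani conidia. Kept moist at 21° C; lesion cover rated 4 days post-inoculation against untreated or diluent-sprayed controls.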

CCC(C)(C)C1CCC2(CC1)CC(NC1CCCCC1)CO2 (centres unmarked) [Compound 51]
disease control rating EGP [1]: 2 (greater than 80% disease control) | disease control rating PVA [2]: 0 (less than 50% disease control) | disease control rating BCB [3]: 0 (less than 50% disease control) | disease control rating RSI [4]: 1 (about 50-80% disease control) | disease control rating EGT [5]: 2 (greater than 80% disease control) | disease control rating PO [6]: 0 (less than 50% disease control) | disease control rating VII [7]: 1 (about 50-80% disease control) | disease control rating PHI [8]: 1 (about 50-80% disease control) | disease control rating LN [9]: 0 (less than 50% disease control) | disease control rating PIP [10]: 2 (greater than 80% disease control) | disease control rating AS [11]: 2 (greater than 80% disease control)

CCC(C)(C)C1CCC2(CC1)CC(N1CC(C)CC(C)C1)CO2 (centres unmarked) [Compound 52]
disease control rating EGP [1]: 2 (greater than 80% disease control) | disease control rating PVA [2]: 0 (less than 50% disease control) | disease control rating BCB [3]: 0 (less than 50% disease control) | disease control rating RSI [4]: 1 (about 50-80% disease control) | disease control rating EGT [5]: 2 (greater than 80% disease control) | disease control rating PO [6]: 0 (less than 50% disease control) | disease control rating VII [7]: 1 (about 50-80% disease control) | disease control rating PHI [8]: 1 (about 50-80% disease control) | disease control rating LN [9]: 0 (less than 50% disease control) | disease control rating PIP [10]: 0 (less than 50% disease control) | disease control rating AS [11]: 0 (less than 50% disease control)

CCC(C)(C)C1CCC2(CC1)CC(N1CC(C)OC(C)C1)CO2 (centres unmarked) [Compound 53]
disease control rating EGP [1]: 2 (greater than 80% disease control) | disease control rating PVA [2]: 0 (less than 50% disease control) | disease control rating BCB [3]: 1 (about 50-80% disease control) | disease control rating RSI [4]: 0 (less than 50% disease control) | disease control rating EGT [5]: 2 (greater than 80% disease control) | disease control rating PO [6]: 0 (less than 50% disease control) | disease control rating VII [7]: 1 (about 50-80% disease control) | disease control rating PHI [8]: 1 (about 50-80% disease control) | disease control rating LN [9]: 0 (less than 50% disease control) | disease control rating PIP [10]: 0 (less than 50% disease control) | disease control rating AS [11]: 0 (less than 50% disease control)

CCCCCNC1COC2(CCC(c3ccccc3)CC2)C1 (centres unmarked) [Compound 54]
disease control rating EGP [1]: 2 (greater than 80% disease control) | disease control rating PVA [2]: 0 (less than 50% disease control) | disease control rating BCB [3]: 0 (less than 50% disease control) | disease control rating RSI [4]: 0 (less than 50% disease control) | disease control rating EGT [5]: 2 (greater than 80% disease control) | disease control rating PO [6]: 0 (less than 50% disease control) | disease control rating VII [7]: 1 (about 50-80% disease control) | disease control rating PHI [8]: 0 (less than 50% disease control) | disease control rating LN [9]: 0 (less than 50% disease control) | disease control rating PIP [10]: 0 (less than 50% disease control) | disease control rating AS [11]: 0 (less than 50% disease control)

CCCCN(CCCC)C1COC2(CCC(c3ccccc3)CC2)C1 (centres unmarked) [Compound 55]
disease control rating EGP [1]: 2 (greater than 80% disease control) | disease control rating PVA [2]: 0 (less than 50% disease control) | disease control rating BCB [3]: 2 (greater than 80% disease control) | disease control rating RSI [4]: 0 (less than 50% disease control) | disease control rating EGT [5]: 2 (greater than 80% disease control) | disease control rating PO [6]: 0 (less than 50% disease control) | disease control rating VII [7]: 1 (about 50-80% disease control) | disease control rating PHI [8]: 0 (less than 50% disease control) | disease control rating LN [9]: 1 (about 50-80% disease control) | disease control rating PIP [10]: 0 (less than 50% disease control) | disease control rating AS [11]: 0 (less than 50% disease control)

c1ccc(C2CCC3(CC2)CC(NC2CCCCC2)CO3)cc1 (centres unmarked) [Compound 56]
disease control rating EGP [1]: 2 (greater than 80% disease control) | disease control rating PVA [2]: 0 (less than 50% disease control) | disease control rating BCB [3]: 2 (greater than 80% disease control) | disease control rating RSI [4]: 0 (less than 50% disease control) | disease control rating EGT [5]: 2 (greater than 80% disease control) | disease control rating PO [6]: 0 (less than 50% disease control) | disease control rating VII [7]: 1 (about 50-80% disease control) | disease control rating PHI [8]: 0 (less than 50% disease control) | disease control rating LN [9]: 2 (greater than 80% disease control) | disease control rating PIP [10]: 0 (less than 50% disease control) | disease control rating AS [11]: 0 (less than 50% disease control)

CC1CC(C)CN(C2COC3(CCC(c4ccccc4)CC3)C2)C1 (centres unmarked) [Compound 57]
disease control rating EGP [1]: 2 (greater than 80% disease control) | disease control rating PVA [2]: 0 (less than 50% disease control) | disease control rating BCB [3]: 0 (less than 50% disease control) | disease control rating RSI [4]: 0 (less than 50% disease control) | disease control rating EGT [5]: 2 (greater than 80% disease control) | disease control rating PO [6]: 0 (less than 50% disease control) | disease control rating VII [7]: 1 (about 50-80% disease control) | disease control rating PHI [8]: 0 (less than 50% disease control) | disease control rating LN [9]: 1 (about 50-80% disease control) | disease control rating PIP [10]: 0 (less than 50% disease control) | disease control rating AS [11]: 0 (less than 50% disease control)

CC1CN(C2COC3(CCC(c4ccccc4)CC3)C2)CC(C)O1 (centres unmarked) [Compound 58]
disease control rating EGP [1]: 2 (greater than 80% disease control) | disease control rating PVA [2]: 0 (less than 50% disease control) | disease control rating BCB [3]: 0 (less than 50% disease control) | disease control rating RSI [4]: 0 (less than 50% disease control) | disease control rating EGT [5]: 2 (greater than 80% disease control) | disease control rating PO [6]: 0 (less than 50% disease control) | disease control rating VII [7]: 1 (about 50-80% disease control) | disease control rating PHI [8]: 0 (less than 50% disease control) | disease control rating LN [9]: 2 (greater than 80% disease control) | disease control rating PIP [10]: 0 (less than 50% disease control) | disease control rating AS [11]: 0 (less than 50% disease control)

CCCCCCN(C)C1COC2(CCCCC2)C1 (centres unmarked) [Compound 59]
disease control rating EGP [1]: 2 (greater than 80% disease control) | disease control rating PVA [2]: 0 (less than 50% disease control) | disease control rating BCB [3]: 0 (less than 50% disease control) | disease control rating RSI [4]: 0 (less than 50% disease control) | disease control rating EGT [5]: 2 (greater than 80% disease control) | disease control rating PO [6]: 0 (less than 50% disease control) | disease control rating VII [7]: 0 (less than 50% disease control) | disease control rating PHI [8]: 0 (less than 50% disease control) | disease control rating LN [9]: 0 (less than 50% disease control) | disease control rating PIP [10]: 0 (less than 50% disease control) | disease control rating AS [11]: 0 (less than 50% disease control)

CCCCCCN(C)C1COC2(CCC(C(C)(C)CC)CC2)C1 (centres unmarked) [Compound 60]
disease control rating EGP [1]: 2 (greater than 80% disease control) | disease control rating PVA [2]: 0 (less than 50% disease control) | disease control rating BCB [3]: 0 (less than 50% disease control) | disease control rating RSI [4]: 2 (greater than 80% disease control) | disease control rating EGT [5]: 2 (greater than 80% disease control) | disease control rating PO [6]: 0 (less than 50% disease control) | disease control rating VII [7]: 1 (about 50-80% disease control) | disease control rating PHI [8]: 0 (less than 50% disease control) | disease control rating LN [9]: 1 (about 50-80% disease control) | disease control rating PIP [10]: 0 (less than 50% disease control) | disease control rating AS [11]: 0 (less than 50% disease control)
